The values below come from patent US20240279275A1, “HEXAPEPTIDE DERIVATIVE AND COSMETIC COMPOSITION OR PHARMACEUTICAL COMPOSITION AND USE THEREOF” (SHENZHEN WINKEY TECHNOLOGY CO., LTD, priority 2021, published 2024).

Series [1] relates to NIH3T3 cells. Briefly: Cell proliferation assay (MTT). The class given is cell-based, Mouse. As to conditions: 72 h. From the text: (§1) Mouse skin fibroblasts (NIH3T3) were purchased from the Shanghai Cell Bank of China Center for Type Culture Collection under the Chinese Academy of Sciences.
• CA, at a test concentration of 1 ppm, 10 ppm, 100 ppm, and 500 ppm, respectively; • GA, at a test concentration of 1 ppm, 10 ppm, 100 ppm, and 500 ppm, respectively; • the peptide H-Gly-Pro-Gln-Gly-Pro-Gln-NH2 (hereinafter referred to as the reference peptide), at a test concentration of 1 ppm, 10 ppm, 100 ppm, and 500 ppm, respectively; • the peptide (2) CA-Gly-Pro-Gln-Gly-Pro-Gln-NH2, at a test concentration of 1 ppm, 10 ppm, 100 ppm, and 500 ppm, respectively; • the peptide (4) GA-Gly-Pro-Gln-Gly-Pro-Gln-NH2, at a test concentration of 1 ppm, 10 ppm, 100 ppm, and 500 ppm, respectively.
The purpose of this experiment is to evaluate cell viability 72 h after administration and determine the effect of the peptide derivatives of the present invention on cell proliferation by using NIH3T3 cells as the experiment subject.
NIH3T3 cells in good exponential growth phase were taken. A 0.25% trypsin digestion solution was added so that digestion allowed the adherent cells to fall off, counting (1−4)×10^5 cells/mL, which were prepared into a cell suspension.
The cell suspension was inoculated on a 96-well plate with 200 μL/well, and cultured in a constant-temperature CO2 incubator for 24 h.
After changing the medium, the cell suspension was added to drug groups and the control group, respectively, each of which was placed in 20 μL/well and incubated in a 37° C., 5% CO2 incubator for 72 h.
Then 20 μL 5 mg/ml MTT was added to each well and the incubation was continued for 4 h in the 37° C., 5% CO2 incubator. The original solution was removed and 150 μL/well DMSO was added. The plate was placed on a plate shaker for shaking for 5 min. A microplate reader was used to determine the OD value of each well at a wavelength of 570 nm, and calculate the cell viability.
Cell viability=[OD(administration well)−OD(zero adjustment well)]/[OD(control well)−OD(zero adjustment well)]×100%

The test system of series [2] is NIH3T3 cells. Briefly: β-galactosidase staining assay, UV photoaging model. The series is classed as cell-based, Mouse. As to conditions: after UV irradiation, 24 h.
Source text: as §1
• CA, at a test concentration of 1 ppm, 10 ppm, and 100 ppm, respectively; • GA, at a test concentration of 10 ppm; • the reference peptide, at a test concentration of 1 ppm, 10 ppm, and 100 ppm, respectively; • the peptide (2), at a test concentration of 1 ppm, 10 ppm, and 100 ppm, respectively; • the peptide (4) at a test concentration of 10 ppm. 3.
The purpose of this experiment is to test the impact of the peptide derivatives of the present invention on cell senescence using a β-galactosidase staining assay to evaluate the anti-photoaging capability.
(§2) The frozen NIH3T3 cells were cultured and passaged at a ratio of 1:2 to about the 5th generation, and the cells in better growth were selected as experiment subjects.
The cells were inoculated into a 96-well plate at 10,000 cells/well, and when the cells were approximately 80% full, a UV photoaging model was established. In the control group, a PBS solution was added, supplemented with the culture medium to 200 μL, while no UV irradiation was performed; For the UV group and the drug group, a proper amount of PBS was added to wash the culture repeatedly until colorless, followed by adding 50 μL PBS and irradiating under an 80 J/cm^3 UV light. The distance between the light source and the culture bottle was 15 cm. After irradiation, the PBS was removed. In the UV group, a PBS solution and the culture medium were added to 200 μL; in the drug group, the culture medium and the drug diluted in a certain ratio were added to 200 μL. The control group, the UV group, and the drug group were further incubated in a 37° C., 5% CO2 incubator for 24 h. The culture medium was removed. 100 μL 4% paraformaldehyde was added to each well and fixed at room temperature for 15 min, followed by washing with PBS three times, adding a β-galactosidase staining agent (X-gal 0.01%, potassium ferricyanide 0.16%, ferrocyanide potassium 0.02%) 50 μL/well, sealing with plastic wrap, and staining in a 37° C. incubator in the dark for 12 h. The staining solution was removed. Each group was washed with PBS three times, and photographed under a light microscope. The number of cells in the field of view and the number of stained cells were counted.
UV irradiation can cause cell senescence, and the cytoplasm of senescent cells are stained blue-green by the β-galactosidase agent (shown as the dark part in the black and white images). This experiment evaluates the anti-photoaging capability of the peptide derivatives of the present invention through staining morphology images and senescent cell staining statistics.

In series [3] the test system is NIH3T3 cells. Nature of the series: ROS staining assay, UV photoaging model. As to conditions: after UV irradiation, 24 h, ROS fluorescent probe. The class given is cell-based, Mouse.
Source text: as §1
• CA, at a test concentration of 1 ppm; • GA, at a test concentration of 10 ppm; • the reference peptide, at a test concentration of 1 ppm and 10 ppm, respectively; • the peptide (2), at a test concentration of 1 ppm; • the peptide (4), at a test concentration of 10 ppm.
Another indication of aging is an increase in intracellular oxidative stress levels, that is, an increase in ROS, and aging can be slowed down by alleviating oxidative stress. The purpose of this experiment is to test the impact of the peptide derivatives of the present invention on oxidative stress levels using ROS staining assay, thereby evaluating the antioxidant effect.
as §2
The cells were inoculated into a 96-well plate at 10,000 cells/well, and when the cells were approximately 80% full, a UV photoaging model was established. In the control group, a PBS solution was added, supplemented with the culture medium to 200 μL, while no UV irradiation was performed; For the UV group and the drug group, a proper amount of PBS was added to wash the culture repeatedly until colorless, followed by adding 50 μL PBS and irradiating under an 80 J/cm^3 UV light. The distance between the light source and the culture bottle was 15 cm. After irradiation, the PBS was removed. In the UV group, a PBS solution and the culture medium were added to 200 μL; in the drug group, the culture medium and the drug diluted in a certain ratio were added to 200 μL. The control group, the UV group, and the drug group were further incubated in a 37° C., 5% CO2 incubator for 24 h.
The culture medium was removed. Each group was stained according to the ROS probe instructions for 20 min and was observed under a fluorescence microscope.

For series [4] the following is noted: cited from earlier work.
[5] abbreviates: test concentrations 1 ppm to 100 ppm.
Where [6] appears, read: 500 ppm, compared with the control group.

Residues, ends and D or L forms follow the SMILES beside them. *: point of attachment. Caffeoyl = O=C(/C=C/c1ccc(O)c(O)c1)*; Galloyl = O=C(c1cc(O)c(O)c(O)c1)*

Consider “H-Gly-Pro-Gln-Gly-Pro-Gln-NH2 (H-GPQGPQ-NH2) [reference peptide, collagen peptide of EP1406589B1]”, for which the “effect on NIH3T3 cell viability” value in series [1] (10 ppm to 500 ppm, compared with the control group) is on record as “improved cell viability”. Also, the “proportion of senescent cells (β-galactosidase staining)” value (from here on “proportion of senescent cells”) in series [2] (setting [5]) is on record as “unable to reduce the proportion of senescent cells”. Moreover, the “ROS level per unit cells” value is recorded as “failed to reduce the ROS level per unit cells” in series [3] (1 ppm) and “had a certain effect in reducing ROS” in series [3] (10 ppm). For the same molecule, in series [4] (water), the solubility in water result was “good solubility in water”.
For `O=C(O)C=Cc1ccc(O)c(O)c1` [CA, 3,4-dihydroxycinnamic acid], the “effect on NIH3T3 cell viability / toxicity” value in series [1] (setting [6]) is “significant toxicity”. The “proportion of senescent cells” value in series [2] (setting [5]) is recorded as “unable to reduce the proportion of senescent cells”. Besides, the “ROS level per unit cells” value in series [3] (1 ppm) is recorded as “reduced the ROS level per unit cells to a certain extent”. For the same molecule, the “solubility in cold water” value in series [4] was “slightly soluble”.
In the case of `NC(=O)CCC(NC(=O)C1CCCN1C(=O)CNC(=O)C(CCC(N)=O)NC(=O)C1CCCN1C(=O)CNC(=O)/C=C/c1ccc(O)c(O)c1)C(N)=O` (stereo not drawn) [peptide (2), CA-Gly-Pro-Gln-Gly-Pro-Gln-NH2] (Caffeoyl-GPQGPQ-NH2; configuration not given here), the “effect on NIH3T3 cell viability / toxicity” value in series [1] (setting [6]) is reported as “significantly improve cell viability”. Also, the “proportion of senescent cells” value in series [2] (setting [5]) is recorded as “significantly reduced the proportion of senescent cells”. Besides, the “ROS level per unit cells” value in series [3] (1 ppm) is recorded as “significantly reduced the expression of ROS per unit cells”.
As to `NC(=O)CCC(NC(=O)C1CCCN1C(=O)CNC(=O)C(CCC(N)=O)NC(=O)C1CCCN1C(=O)CNC(=O)c1cc(O)c(O)c(O)c1)C(N)=O` (stereo not drawn) [peptide (4), GA-Gly-Pro-Gln-Gly-Pro-Gln-NH2] (Galloyl-GPQGPQ-NH2; configuration not given here), the “toxic effect on NIH3T3 cells” value in series [1] (high concentrations) is recorded as “did not have a toxic effect”. Also, the “proportion of senescent cells” value in series [2] (10 ppm) was “reduced the proportion of senescent cells”. In addition, in series [3] (10 ppm), the “ROS level per unit cells” value is on record as “more significantly reduced the expression of ROS per unit cells”.
In the case of `O=C(O)c1cc(O)c(O)c(O)c1` [GA, 3,4,5-trihydroxybenzoic acid], the “effect on NIH3T3 cell viability / toxicity” value in series [1] (100 ppm, compared with the control group) is given as “significant toxicity”; in series [1] (setting [6]) it was “significant toxicity”. In addition, in series [2] (10 ppm), the “proportion of senescent cells” value is listed as “unable to reduce the proportion of senescent cells”. For the same molecule, in series [3] (10 ppm), the “ROS level per unit cells” value is recorded as “had a certain effect in reducing ROS”. In series [4], the “solubility in cold water” value was “insoluble”.
